For 24 molecules, melting point, IC50 and inhibition results are on record in patent US6858739B2, “Indole and benzimidazole 15-lipoxygenase inhibitors” (Warner-Lambert Company, priority 2000, dated 2005).

One data set concerns the target T1, human 15-LO (Homo sapiens, UniProt P16050).
T1 sequence (P16050 1-662): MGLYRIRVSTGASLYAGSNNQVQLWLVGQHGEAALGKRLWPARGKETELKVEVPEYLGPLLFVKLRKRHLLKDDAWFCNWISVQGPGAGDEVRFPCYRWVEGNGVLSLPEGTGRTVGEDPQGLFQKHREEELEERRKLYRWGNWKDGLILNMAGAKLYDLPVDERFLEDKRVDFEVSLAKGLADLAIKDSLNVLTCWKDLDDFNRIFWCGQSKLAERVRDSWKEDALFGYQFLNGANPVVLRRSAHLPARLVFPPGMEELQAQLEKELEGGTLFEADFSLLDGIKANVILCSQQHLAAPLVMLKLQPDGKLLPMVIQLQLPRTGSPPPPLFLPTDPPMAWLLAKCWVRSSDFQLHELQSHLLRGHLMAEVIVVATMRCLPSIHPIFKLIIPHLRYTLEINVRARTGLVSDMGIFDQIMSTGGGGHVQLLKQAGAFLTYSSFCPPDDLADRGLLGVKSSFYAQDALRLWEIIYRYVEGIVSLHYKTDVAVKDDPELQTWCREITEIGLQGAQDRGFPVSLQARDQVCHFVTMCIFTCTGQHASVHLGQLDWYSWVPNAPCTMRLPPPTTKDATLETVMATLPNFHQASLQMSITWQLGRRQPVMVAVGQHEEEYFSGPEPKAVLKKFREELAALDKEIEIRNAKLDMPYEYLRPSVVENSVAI
The data set is described as follows: 15-LO inhibition, human enzyme. It is filed as biochemical. To be noted: linoleic acid as substrate; for inhibition at 10 µM: at 10 micromolar. As for the experimental part: The compounds described above are effective inhibitors of 15-LO when evaluated in standard assays routinely utilized to measure 15-LO activity. Specifically, representative compounds were evaluated by the methods described by Auerbach et al., Analytical Biochemistry, 1992;201:375-380. Two in vitro assays were utilized, one utilizing rabbit reticulocyte 15-LO, the other using human 15-LO. Both used linoleic acid as substrate, to enzymatically produce a peroxide oxidation product known as 13(S)-HPODE. N-Benzoyl leucomethylene blue was utilized as a colorimetric reagent for detection and quantification of the peroxide formation. Also, HPLC was utilized to quantify the oxidation following incubation at 4° C. for 10 minutes.
Data Column 1 gives the concentration of compound required to inhibit 50% of the activity of 15-LO (IC50) when measured by the HPLC method of Auerbach et al. using rabbit enzymes, and data Column 2 gives data from human 15-LO enzyme.

Where a name gives a salt, the structure may show the parent alone.

Turning to `COc1ccc(-c2cc3cc(F)c(F)cc3[nH]2)cc1Nc1cccc(OCc2ccccc2)c1` (as salt: HCl) [Example 53, [5-(5,6-Difluoro-1H-indol-2-yl)-2-methoxy-phenyl]-(3-benzyloxy-phenyl)-amine], the melting point is 200 to 201 °C (dec.). The molecule `COc1ccc(-c2cc3cc(F)c(F)cc3[nH]2)cc1NS(=O)(=O)c1cccc(N)c1` [Example 16, 3-Amino-N-[5-(5,6-difluoro-1H-indol-2-yl)-2-methoxy-phenyl]-benzenesulfonamide] came in with a melting point of 235 to 238 °C. At human 15-LO, this molecule registered an IC50 of 0.02 µM. At human 15-LO, `COc1ccc(-c2cc3ccccc3[nH]2)cc1NC(=S)Nc1ccc(S(N)(=O)=O)cc1` [Example 17, 4-{3-[5-(1H-Indol-2-yl)-2-methoxy-phenyl]-thioureido}-benzenesulfonamide] yielded an IC50 of 0.187 µM. The molecule `CCCCCCCCCCCCS(=O)(=O)Nc1cc(-c2cc3cc(F)c(F)cc3[nH]2)ccc1OC` [Example 20, Dodecane-1-sulfonic acid [5-(5,6-difluoro-1H-indol-2-yl)-methoxy-phenyl]-amide] yielded a melting point of 148 to 149 °C. Also, the IC50 against human 15-LO came to 0.013 µM.

`CCCCCCCCCCCCS(=O)(=O)Nc1cc(-c2nc3cc(Cl)c(Cl)cc3[nH]2)ccc1OC` [Example 21, Dodecane-1-sulfonic acid [5-(5,6-dichloro-1H-benzoimidazol-2-yl)-2-methoxy-phenyl]-amide] gave a melting point of 203 to 204 °C. Besides, at 10 µM the inhibition at human 15-LO was 65%. As for `COc1ccc(-c2cc3cc(F)c(F)cc3[nH]2)cc1Nc1cccc(C(F)(F)F)c1` [Example 22, [5-(5,6-Difluoro-1H-indol-2-yl)-2-methoxy-phenyl]-(3-trifluoro-methylphenyl)-amine], the melting point was 144 to 146 °C. The molecule also yielded an IC50 at human 15-LO of 0.048 µM. `CCOP(=O)(Cc1ccc(NC(=S)Nc2cc(-c3cc4ccccc4[nH]3)ccc2OC)cc1)OCC` [Example 23, (4-{3-[5-(1H-Indol-2-yl)-2-methoxy-phenyl]-thioureido}-benzyl)-phosphonic acid diethyl ester]: 0.331 µM corresponded to half-maximal inhibition at human 15-LO (IC50). Molecule `COc1ccc(-c2cc3cc(F)c(F)cc3[nH]2)cc1NC(=O)Nc1cc(Cl)cc(Cl)c1` [Example 25, 1-(3,5-Dichloro-phenyl)-3-[5-(5,6-difluoro-1H-indol-2-yl)-2-methoxy-phenyl]-urea] yielded a melting point of 240 to 243 °C. At human 15-LO, this molecule had an IC50 of 2.08 µM. For `COc1ccc(-c2cc3ccccc3[nH]2)cc1NC(N)=S` [Example 26, [5-(1H-Indol-2-yl)-2-methoxy-phenyl]-thiourea], in that order: 188 to 191 °C and 0.258 µM. `COc1ccc(-c2cc3ccccc3[nH]2)cc1NC(=S)N[C@H](C)c1ccccc1` [Example 27, (R)-1-[5-(1H-Indol-2-yl)-2-methoxy-phenyl]-3(1-phenyl-ethyl)-thiourea] showed a melting point of 179 to 181 °C. Moreover, the IC50 on human 15-LO amounted to 1.77 µM. Taken in the same sequence, the figures for `COc1ccc(-c2cc3cc(F)c(F)cc3[nH]2)cc1NS(=O)(=O)c1cccc(C#N)c1` [Example 28, 3Cyano-N-[5-(5,6-difluoro-1H-indol-2-yl)-2-methoxy-phenyl]-benzenesulfonamide] were 239 to 242 °C and 0.802 µM. For the molecule `CNc1cc(-c2cc3ccccc3[nH]2)ccc1OC` [Example 29, [5-(1H-Indol-2-yl)-2-methoxy-phenyl]-methyl-amine], on human 15-LO, the IC50 worked out at 0.47 µM. Same read-out and setting: next, `COc1ccc(-c2cc3cc(F)c(F)cc3[nH]2)cc1NC(=S)Nc1cc(C(=O)O)cc(C(=O)O)c1` [Example 30, 5-{3-[5-(5,6-Difluoro-1H-indol-2-yl)-2-methoxy-phenyl]-thioureido}-isophthalic acid]: 1.82 µM.

`COc1ccc(-c2cc3ccccc3[nH]2)cc1NC(=S)NCCNC(=O)OC(C)(C)C` [Example 31, (2-{3-[5-(1H-Indol-2-yl)-2-methoxy-phenyl]-thioureido}-ethyl)-carbamic acid tert-butyl ester] yielded a melting point of 159 to 160 °C. The molecule further yielded an IC50 against human 15-LO of 0.141 µM. Taken in the same sequence, the figures for `COc1ccc(-c2cc3ccccc3[nH]2)cc1NC(=S)Nc1ccc(C(=O)O)cc1` [Example 32, 4-{3-[5-(1H-Indol-2-yl)-2-methoxy-phenyl]-thioureido}-benzoic acid] were 201 to 203 °C and 0.304 µM. Taken in the same sequence, the figures for `COc1ccc(-c2cc3ccccc3[nH]2)cc1NC(=S)Nc1cccc(CC(=O)O)c1` [Example 33, (3-{3-[5-(1H-Indol-2-yl)-2-methoxy-phenyl]-thioureido}-phenyl)-acetic acid] were 174 to 175 °C and 0.74 µM. The molecule `COc1ccc(-c2cc3ccccc3[nH]2)cc1NC(=S)Nc1ccc(CC(=O)O)cc1` [Example 34, (4-{3-[5-(1H-Indol-2-yl)-2-methoxy-phenyl]-thioureido}-phenyl)-acetic acid] gave a melting point of 190 to 192 °C. The IC50 on human 15-LO was 1.44 µM. The molecule `COc1ccc(-c2cc3cc(F)c(F)cc3[nH]2)cc1NC(=S)N[C@@H](C)c1ccccc1` [Example 35, 1-[5-(5,6-Difluoro-1H-indol-2-yl)-2-methoxy-phenyl]-3-((S)-1-phenyl-ethyl)-thiourea] gave a melting point of 102 to 106 °C. The IC50 on human 15-LO worked out at 0.538 µM. In turn, `COc1ccc(-c2cc3cc(F)c(F)cc3[nH]2)cc1NC(=S)N[C@@H](COC(C)(C)C)C(=O)OC(C)(C)C` [Example 36, (S)-3-tert-Butoxy-2-{3-[5-(5,6-Difluoro-1H-indol-2-yl)-2-methoxy-phenyl]-thioureido}-propionic acid tert-butyl ester] returned a melting point of 111 to 114 °C. The molecule further came in with an inhibition at 10 µM at human 15-LO of 51%. `COc1ccc(-c2cc3cc(F)c(F)cc3[nH]2)cc1NC(=S)N[C@@H](CO)[C@@H](O)c1ccccc1` [Example 40, 1-[5-(5,6-Difluoro-1H-indol-2-yl)-2-methoxy-phenyl]-3-((1S,2S)-2-hydroxy-1-hydroxymethyl-2-phenyl-ethyl)-thiourea] had an IC50 against human 15-LO of 0.62 µM. With `COc1ccc(-c2cc3ccccc3[nH]2)cc1NCc1cccc([N+](=O)[O-])c1` [Example 42, [5-(1H-indol-2-yl)-2-methoxy-phenyl]-(3-nitro-benzyl)-amine], the melting point lay in the range of 160 to 162 °C. Moreover, the midpoint of inhibition on human 15-LO, the IC50, lay at 0.87 µM. Taken in the same sequence, the figures for `COc1ccc(-c2cc3ccccc3[nH]2)cc1NCc1ccc([N+](=O)[O-])cc1` [Example 43, [5-(1H-Indol-2-yl)-2-methoxy-phenyl]-(4-nitro-benzyl)-amine] were 198 to 199 °C and 0.92 µM. For `COc1ccc(-c2cc3ccccc3[nH]2)cc1NCc1ccc([N+](=O)[O-])c(O)c1` [Example 44, [5-(1H-Indol-2-yl)-2-methoxy-phenyl]-(3-hydroxy-4-nitro-benzyl)-amine], in that order: 134 to 135 °C and 0.236 µM.

`COc1ccc(-c2cc3ccccc3[nH]2)cc1NCc1ccc(O)c([N+](=O)[O-])c1` [Example 45, [5-(1H-Indol-2-yl)-2-methoxy-phenyl]-(4-hydroxy-3-nitro-benzyl)-amine] returned a melting point of 165 to 166 °C. This molecule gave an IC50 on human 15-LO of 0.42 µM.
